Measured values: US20240335404A1, “SUBSTITUTED ESTERS CONTAINING POLYOLS AND SACCHARIDES FOR TREATING HEPATOTOXICITY AND FATTY LIVER DISEASES” (SINEW PHARMA INC., priority 2015, published 2024)

System: Liver Injuries Induced by CCl4
Test: Liver injuries induced by CCl4 in mice (GSP, AST/ALT, HAI)
Type: in vivo
Description: In the normal control, animals were administered with normal saline by intraperitoneal injection. In the control group of CCl4 induced liver injuries, animals were intraperitoneally injected with 10 ml/kg CCl4 (40% in corn oil) to induce hepatotoxicity. In the experimental group, animals were intraperitoneally injected with 10 ml/kg CCl4 (40% in corn oil) to induce hepatotoxicity, and 4 hours later, different ingredients of the present invention were administered by tube feeding. Blood was collected from the mice before administration with the ingredients of the present invention or at 24 hours after administration with the ingredients of the present invention for AST/ALT assays. Finally, animals were sacrificed at day 2 and blood were collected for AST/ALT assay and histological analysis was performed.
On the other hand, other experimental groups of mice were fed with the ingredients of the present invention for 12 weeks and the mice were subjected to GSP tests.
Liver damage is quantified by measuring plasma AST and ALT activity. AST and ALT are common indicators of hepatotoxicity and are measured by using the Synchron LXi 725 system (Beckman Instruments, U.S.).
Following scarification of the rats, histological analysis was performed. Liver samples were fixed with 10% phosphate-buffered formalin, dehydrated an embedded in paraffin, Sections were prepared in 5 μm thickness and then stained with hematoxylin and eosin and subjected to Periodic acid Schiff stain (PAS). The stained sections were observed under the optic microscope.
After the study was completed, all rats were subjected to GSP test. Rats were i.v. injected with 0.4 g/ml BW galactose solution 0.5 g/kg within 30 seconds and one blood sample was collected at 5, 10, 15, 30, 45 and 60 minutes post injection from the tail vein. Colorimetric galactose dehydrogenase is used to quantify the concentration of galactose and the test concentration ranges from 50 to 1,000 μg/ml. The within-day variation of each concentration is calculated using standard deviation and coefficient of variation (CV) and the maximum allowable coefficient of variation is 10% CV, whereas day-to-day variation is examined by comparing the slope and intercept of calibration curves. The GSP is the blood galactose concentration obtained 60 seconds after stopping the 30-second injection.
All data are represented in mean±standard deviation (SD) and the results are calculated using ANOVA to determine the significance. Statistical Package of the Social Science program (Version 13, SPSS Inc.) is used for calculations followed by post hoc test to examine the least significant difference for multiple comparisons so as to confirm the significant differences between groups and the average difference between groups was significant p<0.05.

[1] = CCl4-induced liver injuries, dose less than or equivalent to 100 mg per person

OC[C@@H](O)[C@@H](O)[C@H](O)[C@H](O)CO [Mannitol]
ALT [1]: 77 ± 22 IU/L | AST [1]: 91 ± 28 IU/L | GSP [1]: 290 ± 78 mg/L | Total HAI score [1]: 0.8 ± 0.5 | effect on CCl4-induced liver injuries (mice, CCl4): liver injuries can be improved
